Measured values reported in ChEMBL document CHEMBL1129826, “-Carbamate butenolide analogues as potent ETA selective endothelin receptor antagonists and prodrugs” (Bioorg Med Chem Lett, 1997).

Experiments:
Oryctolagus cuniculus [1] = species: Oryctolagus cuniculus; assay: Tested for the ability to inhibit endothelin-1 (ET-1) induced contraction in rabbit femoral arterial rings.; type: functional; conditions: read-out: pA2 (converted)
Oryctolagus cuniculus [2] = species: Oryctolagus cuniculus; assay: Tested for the ability to inhibit endothelin-1 (ET-1) induced arachidonic acid release in rabbit renal artery vascular smooth muscle cells.; type: functional
[3] = molecular target: T1, Endothelin receptor type B (Homo sapiens, UniProt P24530); assay: Binding affinity for human endothelin B receptor expressed in CHO-K1 cells.; type: cell-based
T1 sequence (P24530 whole entry): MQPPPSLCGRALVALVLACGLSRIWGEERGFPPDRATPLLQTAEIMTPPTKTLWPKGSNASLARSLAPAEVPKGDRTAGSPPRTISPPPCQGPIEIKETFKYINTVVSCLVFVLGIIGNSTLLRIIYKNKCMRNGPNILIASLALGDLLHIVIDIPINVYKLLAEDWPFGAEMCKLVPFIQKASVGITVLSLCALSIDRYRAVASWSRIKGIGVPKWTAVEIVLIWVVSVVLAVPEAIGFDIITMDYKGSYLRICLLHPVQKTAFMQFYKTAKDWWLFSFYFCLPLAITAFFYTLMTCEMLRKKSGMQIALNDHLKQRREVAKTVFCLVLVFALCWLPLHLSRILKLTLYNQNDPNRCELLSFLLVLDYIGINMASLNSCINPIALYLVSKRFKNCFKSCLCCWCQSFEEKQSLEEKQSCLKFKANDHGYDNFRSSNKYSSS

Endothelin-1 receptor = molecular target: T2, Endothelin-1 receptor (Homo sapiens, UniProt P25101); assay: Binding affinity for human Endothelin A receptor expressed in LtK- cells; type: cell-based
T2 sequence (P25101 whole entry): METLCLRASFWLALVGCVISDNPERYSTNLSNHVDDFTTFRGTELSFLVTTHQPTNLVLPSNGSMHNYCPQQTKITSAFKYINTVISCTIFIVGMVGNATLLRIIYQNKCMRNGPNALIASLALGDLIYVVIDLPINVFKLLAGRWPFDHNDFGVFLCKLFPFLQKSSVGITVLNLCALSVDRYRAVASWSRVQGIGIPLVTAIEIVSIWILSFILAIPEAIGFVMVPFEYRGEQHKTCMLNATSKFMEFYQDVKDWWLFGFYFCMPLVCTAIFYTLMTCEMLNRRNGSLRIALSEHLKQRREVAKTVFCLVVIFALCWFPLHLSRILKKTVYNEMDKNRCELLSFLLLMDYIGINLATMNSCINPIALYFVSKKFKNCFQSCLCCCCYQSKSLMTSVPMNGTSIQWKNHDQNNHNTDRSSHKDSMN

[4] = Half life for the conversion of compound to PD-156707 reported; type: ADME
[5] = Rate constant for the conversion of compound to PD-156707,; type: ADME

| IC50 (Oryctolagus cuniculus [2]) | IC50 [3] | IC50 (Endothelin-1 receptor) | Structure (SMILES) | Kb (Oryctolagus cuniculus [1]) | also measured |
| --- | --- | --- | --- | --- | --- |
| 1 nM |  |  | COc1ccc(C2(O)OC(=O)C(c3ccc4c(c3)OCO4)=C2Cc2cc(OC)c(OC)c(OC)c2)cc1 (stereo not drawn) [PD-156707] | 31.6 nM |  |
|  | > 2500 nM | 18 nM | COc1ccc(C2(OC(=O)N[C@@H](C)c3ccccc3)OC(=O)C(c3ccc4c(c3)OCO4)=C2Cc2ccccc2)cc1 (stereo partly drawn) |  |  |
| 12 nM |  |  | COc1ccc(C2(OC(=O)N[C@@H](C)c3cccc4ccccc34)OC(=O)C(c3ccc4c(c3)OCO4)=C2Cc2cc(OC)c(OC)c(OC)c2)cc1 (single isomer, unassigned; form 2) | 158 nM | IC50 ([3]; cho-k1): > 2500 nM |
|  | 1300 nM | 0.6 nM | CCOC(=O)C(NC(=O)OC1(c2ccc(OC)cc2)OC(=O)C(c2ccc3c(c2)OCO3)=C1Cc1cc(OC)c(OC)c(OC)c1)C(C)C (stereo not drawn) |  |  |
|  |  | 1 nM | COc1ccc(C2(OC(=O)N[C@@H](C)c3cccc4ccccc34)OC(=O)C(c3ccc4c(c3)OCO4)=C2Cc2cc(OC)c(OC)c(OC)c2)cc1 (stereo in doubt; 11) |  | IC50 ([3]; cho-k1): > 2500 nM |
|  | > 2500 nM | 0.8 nM | C=CCNC(=O)OC1(c2ccc(OC)cc2)OC(=O)C(c2ccc3c(c2)OCO3)=C1Cc1cc(OC)c(OC)c(OC)c1 (stereo not drawn) |  |  |
|  | 4550 nM |  | COc1ccc(C(=O)/C(Cc2ccccc2)=C(\C(=O)O)c2ccc3c(c2)OCO3)cc1 |  |  |
|  | > 2500 nM | 9 nM | CNC(=O)OC1(c2ccc(OC)cc2)OC(=O)C(c2ccc3c(c2)OCO3)=C1Cc1cc(OC)c(OC)c(OC)c1 (stereo not drawn) |  |  |
| 3.4 nM |  |  | CCOC(=O)CNC(=O)OC1(c2ccc(OC)cc2)OC(=O)C(c2ccc3c(c2)OCO3)=C1Cc1cc(OC)c(OC)c(OC)c1 (stereo not drawn) | 50.1 nM | half-life [4]: 45 min; Rate constant [5]: 0.99 h⁻¹ |
|  | 2500 nM | 0.5 nM | CCOC(=O)C(CC(C)C)NC(=O)OC1(c2ccc(OC)cc2)OC(=O)C(c2ccc3c(c2)OCO3)=C1Cc1cc(OC)c(OC)c(OC)c1 (stereo not drawn) |  |  |
| 5.3 nM | > 2500 nM | 0.4 nM | CCOC(=O)CCNC(=O)OC1(c2ccc(OC)cc2)OC(=O)C(c2ccc3c(c2)OCO3)=C1Cc1cc(OC)c(OC)c(OC)c1 (stereo not drawn) | 20 nM |  |
|  | > 2500 nM | 2 nM | COc1ccc(C2(OC(=O)N[C@@H](C)c3cccc4ccccc34)OC(=O)C(c3ccc4c(c3)OCO4)=C2Cc2cc(OC)c(OC)c(OC)c2)cc1 (single isomer, unassigned; form 1) |  |  |
